# Source: patent publication US9415067B2, “Genetic test for liver copper accumulation in dogs and low copper pet diet” (Mars, Inc., priority 2009, dated 2016)
# Key:
# [1] = system: canine dermal fibroblast cells ATP7A^C/C, ATP7A^C/T, ATP7A^T/T; assay: 64Cu incorporation and efflux (washout) in canine primary dermal fibroblasts, gamma counting; assay type: cell-based, dog; settings: 100 μM
# Procedure: FIGS. 7A and 7B show copper isotope measurements in canine primary fibroblast cells. Copper isotope (64Cu) measurements in ATP7A^C/C, ATP7A^C/T and ATP7A^T/T cells after (A) 24 h or 48 h incubation with 10 μM, 50 μM and 100 μM 64Cu, or (B) 24 hrs incubation, followed by extensive washing and incubation in non copper isotope media for 2 h. Gamma-counts were corrected for cell culture conditions by means of a protein and MTS assay. Data points for 24 hr incubation represent the mean+/−SEM from two independent experiments performed in duplicate and expressed as counts per minute (cpm) of total cell protein. Other data points represent mean+/−SEM from one experiment in duplicate.
# The canine dermal fibroblast cells CDFIB44, CDFIB62 and CDFIB111 were isolated from euthanized female Labradors. Blood samples, taken prior to euthanizing were subject to the genetic test of the invention to ascertain increased risk to the disease. CDFIB111 was homozygous for the ATP7A SNP and CDFIB62 was heterozygote. […] was used as a control. […]
# For copper treatment, cells were incubated in 10, 50, and 100 μM copper for 24 or 48 h. […] Emission was measured in individual tubes containing media, washing steps, or lysate in a Packard B5003 gamma counter (Packard BioScience Benelux, Groningen, the Netherlands) between 450 and 800 keV for 2 minutes. […] Cells were then analysed for copper as described above. Copper accumulation was normalized to the protein concentration of the cell lysate (quantified using a Bio Rad Protein Assay Kit, Bio Rad) and an MTS colorimetric assay (3-[4,5-dimethylthiazol-2-yl]-5-[3-carboxymethoxyphenyl]-2-[4-sulfophenyl]-2H-tetrazolium) (Promega) was run in parallel. This quantitative assay detects living but not dead cells. The absorbance at 490 nm (test wavelength) and at 650 nm (reference wavelength) was measured using an enzyme-linked immunosorbent assay microplate reader (Bio-Rad); wells containing culture medium but no cells served as blanks. […]
# [2] = system: hepatic copper accumulation; assay: Diet trial with randomized placebo-controlled zinc application: quantitative hepatic copper by neutron activation analysis of liver biopsies; assay type: in vivo, dog
# Procedure: All dogs were fed the same diet. […] The pharmacist was the only person aware of group allocations until completion of the study. Hepatic copper concentrations and histopathology were assessed along with clinical examinations and blood-work before and after treatment for a mean of 8 months (range 5-13), and 16 months (range 12-25). Plasma zinc concentrations were measured at additional time points during treatment.
# All dogs had completed their treatment with penicillamine prior to the start of this study. A medical history was obtained from all dogs and a physical examination was performed. […] Two biopsies were fixed in 10 percent neutral buffered formalin, and one biopsy was stored in a copper-free container for quantitative copper determination.
# A quantitative assay for copper in liver tissue was performed by neutron activation analysis, according to a protocol described by Teske et al, using the facilities described by Bode (Bode, P. (1990) Journal of Trace and Microprobe Techniques 8: 139; Teske et al. (1992) Vet Rec 131: 30-32). Quantitative copper concentrations were measured in lyophilised liver biopsies and reported in mg/kg dry weight liver.
# All dog owners were provided with the same specially manufactured diet. […] Metabolizable energy (measured according to Association of American Feed Control Officials protocol): 1650 kcal/kg as fed). […]
# [3] = system: hepatic copper accumulation; assay: Example 7: hepatic copper before penicillamine, after penicillamine and after diet; assay type: in vivo, dog; settings: all dogs fed the diet of Example 6, data not shown
# Procedure: FIG. 3 illustrates the effectiveness of the diet of the invention on hepatic copper concentrations (mg/kg dry weight) in 18 Labrador Retrievers compared with the effect of penicillamine alone. The key to the x-axis is as follows: 1=pre-penicillamine, 2=post-penicillamine/pre-food, 3=post-food. […] The dotted line represents the normal level of hepatic copper for adult dogs.
# During an investigation of the effect of zinc on hepatic copper concentration, hepatic copper concentration was measured in 18 pure-bred Labrador Retrievers. Half of the dogs were provided with a supplement of zinc and the other half were provided with a placebo. All of the dogs were fed the diet of Example 6. Hepatic copper 25 concentration was measured using the method of Example 6 at 3 time points: (1) before treatment with penicillamine; (2) after treatment with penicillamine but before treatment with the diet of Example 6; and (3) after the diet treatment.
# [4] = Pharmacokinetic study of oral zinc gluconate, plasma zinc by atomic absorption spectrometry; assay type: in vivo; settings: mean of dog 1 and dog 2
# Procedure: Two unrelated nine-year old, healthy Labrador Retrievers (1 female and 1 male) were used in a pharmacokinetic study. Food was withheld for a 12-hour period prior to oral administration of zinc, and during the initial 6-hour testing period. Water was freely available. […] Heparinized blood samples (4 ml) were collected from the jugular vein before dosing (time 0) and 15, 30, 45, 60, 90, 120 minutes, and 4, 8, 12 and 24 hours after application of the drug. Plasma was stored at −20° C. until analysis for zinc using atomic absorption spectrometry.
# In addition the test was used to detect a difference between group-1 and group-2 before the study, at recheck-1, and at recheck-2 (significance level p<0.05).
# [5] = 24 h incubation, 2 h of washout
molecule,measurement,setting,value
[64Cu] [Cu64],isotope retained by ATP7A^C/C cells,[1]; [5],approximately 45%
same,isotope retained by ATP7A^T/T cells,[1]; [5],~90%
same,increase in incorporation of copper in ATP7A^T/T and ATP7A^C/T cells compared to ATP7A^C/C cells,[1]; after 24 h and 48 h,approximately two-fold
CC(C)(S)[C@@H](N)C(=O)O [penicillamine],mean hepatic copper concentration after completion of treatment with penicillamine,"[2]; 24 Labradors at the start of the diet trial, reference range 400 mg/kg dry weight",894 mg/kg dry weight
zinc gluconate,difference between copper levels in dogs treated with zinc and with the placebo,[3],no significant difference
same,effect of adjunctive zinc on the de-coppering effect of the diet,[2]; diet + zinc gluconate 7.5 mg/kg PO BID versus diet + placebo,did not amplify the de-coppering effect
same,apparent oral clearance (CL/F),[4],2.116898 mL/min/kg
